Test results taken from patent publication EP1431294A1, “VASCULAR WALL-SELECTIVE ACAT INHIBITOR” (Kowa Company Ltd., priority 2001, dated 2003).

Assays:
[1] = tested on: lipid-loaded model of F1B hamster; assay: Arteriosclerotic model animal test (lipid-loaded F1B hamster); settings: for dose from which suppression of lipid accumulation was effective / plasma cholesterol at doses effective in suppression of lipid accumulation: F1B hamsters; for dose from which suppression of lipid accumulation was effective: drug in high-fat feed; for dose from which suppression of lipid accumulation was effective / CE/FC Adrenal Gland / CE/FC Lipid Accumulation to Artery / CE/FC Liver / CE/FC Small Intestine: 10 weeks; for plasma cholesterol at doses effective in suppression of lipid accumulation: total cholesterol in plasma relative to control, Dunnett's test; for CE/FC Adrenal Gland / CE/FC Lipid Accumulation to Artery / CE/FC Liver / CE/FC Small Intestine: ratio to control (1.0)
Protocol: Male hamsters of a Bio F1B strain purchased from Nippon Charles River were randomly grouped so that each group comprised six. As from eight weeks age, they were loaded with a high-fat feed (0.3% of cholesterol and 10% of coconut oil) for ten weeks while the drug was administered by mixing with the feed. After ten weeks, blood was collected and cholesterol in plasma was measured. Further, arterywas excised after fixingbyperfusion with a 10% formalin solution. This was incised, lipid which was accumulated in the artery was stained with Oil Red O and the stained area was measured using an image analyzer.
A high-fat feed (0.3% of cholesterol and 10% of coconut oil) was prepared by way of compounding ratio of cholesterol : coconut oil : feed (CE-2) = 0.03:1:9. Incidentally, a high-fat feed was given to the control group and the administered period was 10 weeks.
Hamster under a non-fasted state was anesthetized, subj ected to an abdominal section to expose the abdominal artery and about 2.5 mL of blood were collected. The collected blood was centrifuged at 3, 000 rpm for 15 minutes to collect the plasma and then total cholesterol (TC) and free cholesterol (FC) in plasma were determined by a Cholesterol E-Test Wako (a cholesterol oxidase DAOS method) and a Free Cholesterol E-Test Wako (a cholesterol oxidase DAOS method), respectively.
About 500 mg of liver, small intestine and adrenal body were excised and washed with a physiological saline solution and lipid concentration in the tissues was measured. In the measurement, 10 mL of chloroform : methanol (2:1) as an extracting solution for lipid in the tissue were placed in the liver and the small intestine, homogenized at 3,000 rpm using a Polytron Homogenizer PT 3100 and allowed to stand at 4°C for one night. The extract was centrifuged at 1,500 rpm for 15 minutes, 0.2 mL of the supernatant liquid was evaporated to dryness using a vacuum pump, the residue was dissolved in 50 µL of isopropanol and each lipid was subjected to the same kits whereupon TC and FC were quantified. With regard to the adrenal body, it was finely cut using scissors and 0.5 mL of chloroform : methanol (2:1) was added thereto followed by being allowed to stand at 4°C for one night. That was centrifuged at 1,500 rpm for 15 minutes, 0.2 mL of the supernatant liquid was evaporated to dryness using a vacuum pump, the residue was dissolved in 50 µL of isopropanol and each lipid was subjected to the same kits whereupon TC and FC were quantified.
With regard to the total cholesterol (TC) in plasma in the group to which the drug was administered, the relative ratio to TC in the control group was used as an indicator while, with regard to the tissue, difference between TC and FC was defined as CE (cholesterol ester) and the lipid-constituting ratio, CE/FC, in each organ was determined whereupon their relative ratio to each control was calculated and used as an indicator. Thus, in those indicators, the control group was defined as 100% and the calculation using the following formula was carried out so as to use a plasma TC lowering action by ACAT inhibitory action to liver and small intestine of the group to which the drug was administered as an indicator and also to use the variation of CE/FC ratio by an ACAT inhibitory action to each organ as an indicator. Indicator (%) for total cholesterol in plasma = [(TC of drug-administered group)/(TC of the control group)] × 100 [formula] Indicator (%) for lipid constituting ratio in each organ = [(CE/FC of drug-administered group)/(CE/FC of the control group)] × 100 [formula]
After collection of the blood, a 18-G injection needle was inserted into apex and perfused with a physiological saline solution (120 mmHg) for about 5minutes. It was further perfused with a 10% neutral formalin buffer (120 mmHg) for about 5 minutes. Bulbar and thoracic artery was excised and fixed in a 10% formalin buffer.

ACAT [2] = target: T1, ACAT (Mus musculus, UniProt Q61263); assay: ACAT inhibitory activity test in J774 cells (anti-foaming action); type: cell-based; settings: for IC50: J774 cells, 25-hydroxycholesterol 10 µg/mL, 18 hours, cholesterol ester per protein
T1 construct: J774 cells or HepG2 cells were sown on a 24-well plate; endogenous in cells; host or cells: J774 cells
T1 sequence (Q61263 1-540): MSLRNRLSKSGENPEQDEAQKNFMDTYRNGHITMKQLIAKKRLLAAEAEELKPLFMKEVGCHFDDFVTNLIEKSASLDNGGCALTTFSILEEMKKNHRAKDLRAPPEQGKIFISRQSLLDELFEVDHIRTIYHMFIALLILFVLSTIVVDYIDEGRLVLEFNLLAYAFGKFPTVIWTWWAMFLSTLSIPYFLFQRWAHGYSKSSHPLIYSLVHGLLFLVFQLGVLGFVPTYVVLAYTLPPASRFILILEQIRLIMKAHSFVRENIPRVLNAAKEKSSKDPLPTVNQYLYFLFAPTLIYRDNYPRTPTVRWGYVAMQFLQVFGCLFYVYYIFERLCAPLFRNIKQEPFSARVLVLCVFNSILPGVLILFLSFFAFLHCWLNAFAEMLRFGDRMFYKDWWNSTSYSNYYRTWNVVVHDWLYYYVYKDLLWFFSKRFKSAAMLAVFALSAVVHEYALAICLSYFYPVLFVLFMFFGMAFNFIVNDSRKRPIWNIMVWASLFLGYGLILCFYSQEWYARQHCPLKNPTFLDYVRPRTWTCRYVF
Protocol: (§1) J774 cells or HepG2 cells were sown on a 24-well plate and incubation was carried out at 37°C for 24 hours in a 5% CO2 incubator using a Dulbecco's modified Eagle's medium for J774 cells and an Eagle's minimum essential medium for HepG2 cells (where both media contained 10% of fetal bovine serum). […] The medium was taken out, washed with PBS twice, extracted with 1.5 mL of hexane-isopropanol (3:2) and concentrated to dryness. The extract was dissolved in isopropanol containing 0.2 mL of 10% Triton X-100 and then total cholesterol (TC) and free cholesterol (FC) were determined by a Cholesterol E Test Wako (Wako Pure Chemical) and a Free Cholesterol E Test Wako (Wako Pure Chemical), respectively. The residue of the cell after extraction was solubilized with 0.25 mL of 2N NaOH at 37°C for 30 minutes and protein was determined by a BCA Protein Assay Reagent (Pierce). From the differencebetween TC and FC, amount of cholesterolester per protein was calculated and, from the comparative calculation with the control, IC50 value was determined.

[3] = Oral absorption test in rats under a fed condition (plasma concentration); type: in vivo; settings: rat, 30 mg/kg
[4] = as above; type: in vivo; settings: compared with the compound of Example 1; rats, 30 mg/kg
Protocol: A solution of the compound of the present invention (dissolved in a mixture of water : PEG 400 = 1:4) or a suspension in 0.5% methyl cellulose (MC) was compulsorily administered per os at. the dose of 30 mg/kg to three rats under a fed condition. Blood after the administration was periodically collected and its concentration in plasma was measured.
The organic layer (upper layer) was collected, the solvent was evaporated in a nitrogen stream, the residue was dissolved in 0.2 mL of a mobile phase (refer to the following) and 80 µL thereof were measured under the following analytical conditions.
The organic layer was collected, the solvent was evaporated in a nitrogen stream, the residue was dissolved in 0.2 mL of a mobile phase (refer to the following) and 80 µL thereof were measured under the following condition for high-performance liquid chromatography. Condition for detection: • (Detector: Single-stage quadrupole mass spectrometer • Ionization method: Atmospheric pressure chemical ionization method • Temperature of nebulizer: 475°C • Corona voltage: 3 kV • Monitoring ion: m/z 569 (hydrogen addition ion of the compound of Example 78), 549 (hydrogen addition ion of the compound of Example 85)) Condition for separation: • (Column: Symmetry RP8 manufactured by Waters (3.0 mmφ × 150 mm) • Temperature of column: 45°C • Mobile phase: a solution where 0.1% ammonium formate (pH 4)/methanol/acetonitrile are mixed in […] • Flow rate: 0.8 mL/min)
To 150 µL of plasma were added a 0.1 mol/L aqueous solution of sodium hydroxide and 0.2 mL of an analogous compound (500 ng/mL of the compound of Example 28 of the Japanese Patent Application No. 8/158,743, i.e. 8-(benzimidazol-2-ylthio)-N-(2,6-diisopropylphenyl)octanamide as an internal standard, stirred and extracted with 6 mL of an isopropanol/hexane (5: 95) solution. The organic layer was collected, the solvent was evaporated in a nitrogen stream, the residue was dissolved in 0.2 mL of a mobile phase (refer to the following) and 80 µL thereof were measured under the following condition for high-performance liquid chromatography.

ACAT [5] = assay: ACAT inhibitory activity test in HepG2 cells; type: cell-based; settings: 25-hydroxycholesterol 10 µg/mL, 18 hours, cholesterol ester per protein
Protocol: as §1

In the case of `CC(C)c1cc(C(C)C)c(CC(=O)NS(=O)(=O)Oc2c(C(C)C)cccc2C(C)C)c(C(C)C)c1` [Cl-1011], the “dose from which suppression of lipid accumulation was effective” value [1] is reported as ≥ 1 mg/kg, the “plasma cholesterol at doses effective in suppression of lipid accumulation” value [1] is reported as “accompanied by a significant decrease of plasma cholesterol” and the “CE/FC Adrenal Gland” value ([1]; dose 0.1 mg/kg in feed) is reported as 0.98. For the same compound, the “CE/FC Lipid Accumulation to Artery” value ([1]; dose 0.1 mg/kg in feed) was 0.73, the “CE/FC Liver” value ([1]; dose 0.1 mg/kg in feed) was 1.03 and the “CE/FC Small Intestine” value ([1]; dose 0.1 mg/kg in feed) was 0.92. For the same compound, the “CE/FC Adrenal Gland” value ([1]; dose 0.3 mg/kg in feed) was 1.03, the “CE/FC Lipid Accumulation to Artery” value ([1]; dose 0.3 mg/kg in feed) was 0.81 and the “CE/FC Liver” value ([1]; dose 0.3 mg/kg in feed) was 0.74. The “CE/FC Small Intestine” value ([1]; dose 0.3 mg/kg in feed) was 0.82, the “CE/FC Adrenal Gland” value ([1]; dose 1 mg/kg in feed) was 0.62 and the “CE/FC Lipid Accumulation to Artery” value ([1]; dose 1 mg/kg in feed) was 0.35. The “CE/FC Liver” value ([1]; dose 1 mg/kg in feed) was 0.37, the “CE/FC Small Intestine” value ([1]; dose 1 mg/kg in feed) was 0.60 and the “CE/FC Adrenal Gland” value ([1]; dose 3 mg/kg in feed) was 0.24. The “CE/FC Lipid Accumulation to Artery” value ([1]; dose 3 mg/kg in feed) was 0.15, the “CE/FC Liver” value ([1]; dose 3 mg/kg in feed) was 0.17 and the “CE/FC Small Intestine” value ([1]; dose 3 mg/kg in feed) was 0.08. The “CE/FC Adrenal Gland” value ([1]; dose 10 mg/kg in feed) was 0.28, the “CE/FC Lipid Accumulation to Artery” value ([1]; dose 10 mg/kg in feed) was 0 and the “CE/FC Liver” value ([1]; dose 10 mg/kg in feed) was 0.07. For the same compound, the “CE/FC Small Intestine” value ([1]; dose 10 mg/kg in feed) was 0 and the “difference of selectivities in each of the tissues” value ([1]; suppressing rate of lipid accumulation vs CE/FC ratio in liver, small intestine, adrenal body) was “a significant difference of selectivities was not found”.

For `CC(C)c1ccc(O)c(C(C)C)c1NC(=O)CN1CCN(CCSc2nc3cccc(C(F)(F)F)c3o2)CC1` [Comparative Compound, 2-[4-[2-(7-trifluoromethylbenzoxazol-2-ylthio)ethyl]piperazin-1-yl]-N-(2,6-diisopropyl-3-hydroxyphenyl)acetamide], the IC50 (ACAT [2]) was 460 nM and the “lowering of ACAT inhibitory activity (J774)” value (ACAT [2]; compared with the compound of Example 85 (19 nM)) was “about 24 fold”.

For `CC(C)c1cccc(C(C)C)c1NC(=O)CN1CCN(CCSc2nc3ccccc3o2)CC1` [Example 1, 2-[4-[2-(benzoxazol-2-ylthio)ethyl]piperazin-1-yl]-N-(2,6-diisopropylphenyl) acetamide], the AUC(0-inf) ([3]; medium 0.05N (Aq HCl)) was 295 ng·h/mL and the Cmax ([3]; medium 0.05N (Aq HCl)) was 110 ng/mL.

With `CSc1cc(C)nc(SC)c1NC(=O)CN1CCN(CCSc2nc3ccccc3o2)CC1` [Example 24, N-[2,4-bis (methylthio) -6-methyl-3-pyridyl]-2-[4-[2-(benzoxazol-2-ylthio)ethyl]-piperazin-1-yl]acetamide] the “dose from which suppression of lipid accumulation was effective” value [1] was ≥ 3 mg/kg, the “plasma cholesterol at doses effective in suppression of lipid accumulation” value [1] was “accompanied by a significant decrease of plasma cholesterol” and the “CE/FC Adrenal Gland” value ([1]; dose 1 mg/kg in feed) was 0.6. For the same compound, the “CE/FC Lipid Accumulation to Artery” value ([1]; dose 1 mg/kg in feed) was 0.91, the “CE/FC Liver” value ([1]; dose 1 mg/kg in feed) was 0.89 and the “CE/FC Small Intestine” value ([1]; dose 1 mg/kg in feed) was 0.79. For the same compound, the “CE/FC Adrenal Gland” value ([1]; dose 3 mg/kg in feed) was 0.34, the “CE/FC Lipid Accumulation to Artery” value ([1]; dose 3 mg/kg in feed) was 0.37 and the “CE/FC Liver” value ([1]; dose 3 mg/kg in feed) was 0.36. The “CE/FC Small Intestine” value ([1]; dose 3 mg/kg in feed) was 0.45, the “CE/FC Adrenal Gland” value ([1]; dose 10 mg/kg in feed) was 0.11 and the “CE/FC Lipid Accumulation to Artery” value ([1]; dose 10 mg/kg in feed) was 0.32. For the same compound, the “CE/FC Liver” value ([1]; dose 10 mg/kg in feed) was 0.16, the “CE/FC Small Intestine” value ([1]; dose 10 mg/kg in feed) was 0.21 and the “CE/FC Adrenal Gland” value ([1]; dose 30 mg/kg in feed) was 0.11. The “CE/FC Lipid Accumulation to Artery” value ([1]; dose 30 mg/kg in feed) was 0.28, the “CE/FC Liver” value ([1]; dose 30 mg/kg in feed) was 0.09 and the “CE/FC Small Intestine” value ([1]; dose 30 mg/kg in feed) was 0.13.

With `CC(C)c1cc(O)cc(C(C)C)c1NC(=O)CN1CCN(CCSc2nc3ccccc3o2)CC1` [Example 72, 2-[4-[2-(benzoxazol-2-ylthio)ethyl]piperazin-1-yl]-N-(2,6-diisopropyl-4-hydroxyphenyl) acetamide] the IC50 (ACAT [2]) was 130 nM, the “improving effect in oral absorption in terms of Cmax value” [4] was “about 4.3 fold” and the IC50 (ACAT [5]) was 780 nM. For the same compound, the AUC(0-inf) ([3]; medium 0.05N (Aq HCl)) was 1100 ng·h/mL and the Cmax ([3]; medium 0.05N (Aq HCl)) was 470 ng/mL.

For `COc1cc(C(C)C)c(NC(=O)CN2CCN(CCSc3nc4ccccc4o3)CC2)c(C(C)C)c1` [Example 75, 2-[4-[2-(benzoxazol-2-ylthio)ethyl]piperazin-1-yl]-N-(2,6-diisopropyl-4-methoxyphenyl)acetamide], the “macrophage selectivity (IC50 (HepG2)/IC50 (J774))” value (ACAT [2]) was “not less than 96 fold”, the IC50 (ACAT [2]) was 100 nM and the IC50 (ACAT [5]) was 10000 nM.

Compound `CCOCCOc1cc(C(C)C)c(NC(=O)CN2CCN(CCSc3nc4ccccc4o3)CC2)c(C(C)C)c1` [Example 78, 2-[4-[2-(benzoxazol-2-ylthio)ethyl]piperazin-1-yl]-N-[2,6-diisopropyl-4-(2-ethoxyethyl)oxyphenyl]acetamide] has an IC50 (ACAT [2]) of 14 nM, an AUC(0-inf) ([3]; medium PEG 400:DMSO = 5:1) of 29.8 ng·h/mL and a Cmax ([3]; medium PEG 400:DMSO = 5:1) of 14.8 ng/mL.

With `CC(C)c1cccc(C(C)C)c1NC(=O)CN1CCN(CCSc2nc3cccc(C(F)(F)F)c3o2)CC1` [Example 85, 2-[4-[2-(7-trifluoromethylbenzoxazol-2-ylthio)ethyl]piperazin-1-yl]-N-(2,6-diisopropylphenyl)acetamide] the IC50 (ACAT [2]) was 19 nM, the IC50 (ACAT [5]) was 680 nM and the AUC(0-inf) ([3]; medium PEG 400) was 71.8 ng·h/mL. The Cmax ([3]; medium PEG 400) was 17.6 ng/mL.
